Measured values published in patent US6716978B2, “Therapeutically active compounds based on indazole bioisostere replacement of catechol in PDE4 inhibitors” (Pfizer Inc, priority 1997, dated 2004).

| SMILES | melting point [°C] |
| --- | --- |
| CCc1nn(-c2ccc(F)cc2)c2cc(Br)ccc12 [Example 20, 6-Bromo-3-ethyl-1-(4-fluorophenyl)-1H-indazole] | 72 to 73 |
| CCc1nn(-c2ccc(F)cc2)c2cc(C3=CCC(C(=O)O)CC3)ccc12 (centres unmarked) [Example 24, 4-(3-ethyl-1-(4-fluorophenyl)-1H-indazol-6-yl)-cyclohex-3-ene-carboxylic acid] | 214 to 216 |
